{"source": "ChEMBL document CHEMBL6078661", "about": "“Alkaloids from Mackinlaya species and synthetic mackinazolinone derivatives: An overview” (Bioorg Med Chem, 2025)", "key": {"[1]": {"system": "Naegleria fowleri", "test": "Antiparasitic activity against Naegleria fowleri NF69 (ATCC 30215) assessed as parasitic growth inhibition at 10 uM incubated for 48 hrs by CellTiter-Glo based BioTek microplate reader analysis relative to control", "type": "functional", "design": "scale not given: the % may be the effect or the level left"}, "[2]": {"target": "Acetylcholinesterase (Homo sapiens, UniProt P22303)", "sequence (P22303 whole entry)": "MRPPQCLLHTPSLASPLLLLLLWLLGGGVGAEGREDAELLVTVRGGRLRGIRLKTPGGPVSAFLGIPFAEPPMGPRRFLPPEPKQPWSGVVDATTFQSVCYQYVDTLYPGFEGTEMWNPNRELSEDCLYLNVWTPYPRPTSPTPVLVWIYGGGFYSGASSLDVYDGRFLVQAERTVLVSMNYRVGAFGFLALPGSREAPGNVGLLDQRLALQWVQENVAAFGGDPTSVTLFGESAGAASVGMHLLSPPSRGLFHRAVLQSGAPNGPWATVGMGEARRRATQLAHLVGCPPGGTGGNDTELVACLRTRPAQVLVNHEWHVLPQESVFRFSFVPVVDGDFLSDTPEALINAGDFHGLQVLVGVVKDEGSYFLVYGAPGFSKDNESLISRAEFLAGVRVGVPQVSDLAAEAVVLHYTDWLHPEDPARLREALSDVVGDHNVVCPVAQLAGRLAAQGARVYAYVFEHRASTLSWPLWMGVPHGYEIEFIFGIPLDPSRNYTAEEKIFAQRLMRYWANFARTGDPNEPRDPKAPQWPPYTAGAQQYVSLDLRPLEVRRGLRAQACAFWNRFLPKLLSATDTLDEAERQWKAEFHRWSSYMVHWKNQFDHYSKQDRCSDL", "test": "Competitive inhibition of AChE (unknown origin)"}, "[3]": {"system": "HeLa", "test": "Antiproliferative activity against human HeLa cells assessed as inhibition of cell proliferation", "type": "functional, cell-based"}, "[4]": {"system": "Staphylococcus aureus", "test": "Antibacterial activity against Staphylococcus aureus assessed as diameter of inhibition zone", "type": "functional"}, "[5]": {"system": "Bacillus cereus", "test": "Antibacterial activity against Bacillus cereus assessed as diameter of inhibition zone", "type": "functional"}, "[6]": {"system": "Pseudomonas aeruginosa", "test": "Antibacterial activity against Pseudomonas aeruginosa assessed as diameter of inhibition zone", "type": "functional"}, "[7]": {"system": "Escherichia coli", "test": "Antibacterial activity against Escherichia coli assessed as diameter of inhibition zone", "type": "functional"}, "[8]": {"system": "MCF7", "test": "Cytotoxicity against human MCF7 cells assessed as reduction in cell viability", "type": "functional, cell-based"}, "[9]": {"system": "HeLa", "test": "Cytotoxicity against human HeLa cells assessed as reduction in cell viability", "type": "functional, cell-based"}, "[10]": {"system": "A549", "test": "Cytotoxicity against human A549 cells assessed as reduction in cell viability", "type": "functional"}}, "note": "pIC50: −log10 of the molar value.", "data": [{"smiles": "CN1CCC[C@@H]2c3nc4ccc(Cl)cc4c(=O)n3CC[C@H]21", "values": [{"measurement": "Activity", "setting": "[1]", "value": 98.1, "unit": "%"}]}, {"smiles": "CN1CCC[C@@H]2c3nc4cc(C(F)(F)F)ccc4c(=O)n3CC[C@H]21", "values": [{"measurement": "Activity", "setting": "[1]", "value": 96.8, "unit": "%"}]}, {"smiles": "CN1CCC[C@H]2c3nc4ccc(C#N)cc4c(=O)n3CC[C@H]21", "values": [{"measurement": "Activity", "setting": "[1]", "value": 98.2, "unit": "%"}]}, {"smiles": "O=c1c2nc(-c3ccc(C(F)(F)F)cc3)sc2nc2n1CCCC2", "values": [{"measurement": "pIC50", "setting": "[2]", "value": 5.78}]}, {"smiles": "COc1ccc(/C=C2\\CCCn3c2nc2oc(-c4ccc(F)cc4)cc2c3=O)cc1OC", "values": [{"measurement": "pIC50", "setting": "[3]", "value": 5.07}]}, {"smiles": "O=C1c2ccccc2NC2=C(/C=N/c3ccccc3O)CCCN12", "values": [{"measurement": "diameter of the inhibition zone (DIZ)", "setting": "[4]", "value": 18, "unit": "mm"}, {"measurement": "diameter of the inhibition zone (DIZ)", "setting": "[5]", "value": 18, "unit": "mm"}, {"measurement": "diameter of the inhibition zone (DIZ)", "setting": "[6]", "value": 18, "unit": "mm"}, {"measurement": "diameter of the inhibition zone (DIZ)", "setting": "[7]", "value": 6, "unit": "mm"}]}, {"smiles": "O=c1c2nc(-c3cc(Cl)cc(Cl)c3)oc2nc2n1CCCC2", "values": [{"measurement": "pIC50", "setting": "[8]", "value": 5.64}, {"measurement": "pIC50", "setting": "[9]", "value": 5.51}, {"measurement": "Activity", "setting": "[10]", "value": 0.75, "unit": "µM"}]}]}
